Numbers after ± are expanded uncertainties.
How the values were obtained:
[1] = Crystal; DTA
[2] = Molar enthalpy of transition or fusion; conditions: Crystal; DSC

Normal melting temperature [1]: 303 ± 0.6 °C
Molar enthalpy of transition or fusion [2]: 10.3 ± 0.239 kcal/mol
SMILES: CN1C(=O)N[C@H]2NC(=O)N(C)[C@H]21

Reference: the NIST ThermoML archive (doi:10.1016/j.tca.2016.01.003)
